Measurements published in paper PMC7311950, “Potent Tetrahydroquinolone Eliminates Apicomplexan Parasites” (Frontiers in Cellular and Infection Microbiology, 2020).
In brackets after ≈: the same amount, converted by molar mass. Where two headings read alike, the source gives them in different places.

Assays:
[1] = tested on: T. gondii EGS strain bradyzoites; experiment: In vitro challenge assay for EGS strain bradyzoites; format: cell-based, Toxoplasma gondii; settings: for number of true cysts and small organisms: EGS strain, at 1 and 10 μM, immunofluorescence microscopy; for IC50: EGS strain in HFF, Figure 1A, read-out: Brady IC50
Method: HFF cells were grown in IMDM on removable, sterile glass cover slips in the bottom of a clear, flat-bottomed 24-well plate. Cultures were infected with 3 × 10^4 EGS strain parasites per well, in 0.5 mL media. The plate was returned to incubator at 37°C overnight. The following day, the media was removed. Colorless IMDM and compounds were added to make various concentrations of the drug. Total volume was 0.5 mL. Two wells had media only, as a control. Plates were returned to the 37°C incubator for 72 h, checked once each 24 h. If tachyzoites were visible in the control before 72 h, cells were fixed and stained. Cells were fixed using 4% paraformaldehyde and stained with Fluorescein-labeled Dolichos Biflorus Agglutinin, DAPI, and antibody to BAG1. Disks were removed, mounted on glass slides, and visualized using microscopy (Nikon Tl7). Slides were scanned using a CRi Panoramic Scan Whole Slide Scanner and viewed using Panoramic Viewer Software. Effects of compounds were quantitated by counting cysts in controls and treated cultures. Dolichos staining delimited structures and single organisms that remained were counted in a representative field of view. This was then multiplied by a factor determined by the total area of the cover slip in order to estimate the number of cysts and organisms in each condition. When the following forms were observed: “true cysts” with a dolichos-staining wall, “pseudocysts” or tight clusters of parasites, and small organisms, if there were fewer than four parasites visible in a cluster, organisms were counted individually (as “small organisms”). The entire scanned coverslip with all fields was also reviewed by 3 observers to confirm consistency.

[2] = Kinetic solubility in PBS pH 7.4 (Chem Partners)
Method: (§1) The effects of changing R1 as 7-Et, 7-Me, 6-CF3, or 6-Me on activity against RH strain tachyzoites, kinetic solubility, and metabolic stability were compared. Kinetic solubility and metabolic stability in human or murine liver microsomes were measured. The hERG (human Ether-à-go-go-Related) liability was also determined. The hERG gene (KCNH2) encodes a protein Kv11.1, the alpha subunit of a potassium ion channel. This channel conducts the rapid component of the delayed rectifier potassium current, IKr, which is critical for repolarization of cardiac action potentials. A reduction in hERG currents from adverse drug effects can lead to long QT interval syndromes. These syndromes are characterized by action potential prolongation, lengthening of the QT interval on surface EKG, and an increased risk for “torsade de pointes” arrhythmias and sudden death. The MDCK-MDR1 Permeability Assay was also performed. MDCK-MDR1 refers to the ability of a compound to permeate across membranes of MDCK-MDR1 (Madin Darby canine kidney [MDCK] cells with the MDR1 gene [ABCB1], the gene encoding for the efflux protein, P-glycoprotein (P-gp)) in vitro. Assessing transport in both directions (apical to basolateral and basolateral to apical) across the cell monolayers enables an efflux ratio to be determined. […] This provides a prediction of blood brain barrier (BBB) penetration potential/permeability and efflux ratio. Effect in CACO-2 (Colon Adenocarcinoma cells) as a permeability assay and on cytochrome P450 (CYP 450) were also determined. CYP enzymes catalyze oxidative biotransformation (phase 1 metabolism) of most drugs. CYP enzymes, bind to membranes in a cell (cyto) and contain a heme pigment (chrome and P) that absorbs light at a wavelength of 450 nm when exposed to carbon monoxide. Metabolism of a drug by CYP enzymes is a major source of variability in drug effect. These were measured by Chem Partners. The relative effect on HFF and parasite enzymes also were compared.

[3] = Metabolic stability in human liver microsomes; settings: for Human liver microsomes: stability, Figure 2E
Method: as §1
(§2) In vitro absorption, distribution, metabolism, excretion, and toxicity (ADMET) analyses of the THQ compounds were outsourced to ChemPartner Shanghai Ltd. ELQ-271 (synthesized in-house) was tested as a comparison.

[4] = Metabolic stability in mouse liver microsomes; settings: for half-life: mouse, liver microsomes
Method: as §1, §2

[5] = tested on: P. falciparum strains D6, TM91-C235, W2, C2B; experiment: Malaria SYBR Green I-Based Fluorescence (MSF) assay; format: cell-based; settings: Plasmodium falciparum
Method: Malaria potency testing in vitro was performed using 4 different P. falciparum strains, D6, TM91-C235, W2, and C2B. The D6 strain is a drug sensitive strain from Sierra Leone, the TM91-C235 strain is a multi-drug resistant strain from Thailand, the W2 strain is a chloroquine resistant strain from Thailand, and the C2B strain is a multi-drug resistant strain with resistance against atovaquone. These assays were performed as described below.
Compound activity against P. falciparum, was tested using the Malaria SYBR Green I–Based Fluorescence (MSF) Assay. The complete method for performing this microtiter assay is described in previous work published by Plouffe et al. ([2008]) and Johnson et al. ([2007]). In brief, this assay uses the binding of the fluorescent dye SYBR Green I to malaria DNA to measure parasite growth in the presence of 2-fold diluted experimental or control. The relative fluorescence of the intercalated SYBR Green I proportional to parasite growth, and inhibitory compounds will result in lower observed fluorescence compared to untreated parasites.

HepG2 cells = experiment: Cytotoxicity with HepG2 cells; format: cell-based; settings: Homo sapiens
Method: Toxicity studies also were performed with HepG2 cells (human liver cancer immortal cell line derived from the liver tissue of a […]) in parallel with the studies of P. falciparum, with inhibitors in vitro, as described in McPhillie et al. ([2016]).

[6] = tested on: T. gondii (Prugneaud strain expressing luciferase) tachyzoites; experiment: Type II Prugneaud luciferase tachyzoite infection of Balb/C mice, IVIS and brain cysts; format: in vivo, Toxoplasma gondii
Method: Balb/C mice were infected intraperitoneally (IP) with 20 × 10^3 T. gondii (Prugneaud strain expressing luciferase) tachyzoites. Treatment began 2 h later with JAG21 (5 mg/kg) which was dissolved in DMSO, administered IP in a total volume of 0.05 mL. Mice were imaged every second day starting on day 4 post infection using an IVIS Spectrum (Caliper Life Sciences) for […], with medium binning, 20 min post injection with 150 mg/kg of D-luciferin potassium salt solution.
Brain cysts were searched for in paraffin imbedded tissue of the surviving Prugneaud strain infected treated Balb/C mice in the IVIS study, 30 days after infection which was 16 days after treatment had been discontinued. All treated mice had survived. There were no surviving untreated mice in those experiments.

[7] = PBS, pH 7.4, aqueous solubility (PBS, pH 7.4), amorphous compounds
[8] = T1/2 (M), predicted half-life in mouse liver microsomes, Figure 1A, min in Figure 2E for the same values
[9] = C2B, multi-drug resistant strain with resistance against atovaquone, read-out: SYBR Green C2B IC50
[10] = D6, drug sensitive strain, read-out: SYBR Green D6 IC50
[11] = TM91-C235, multi-drug resistant strain, read-out: SYBR Green C235 IC50
[12] = W2, chloroquine resistant strain, read-out: SYBR Green W2 IC50
[13] = dose response testing, read-out: HEP G2 IC50

Row | SMILES | number of true cysts and small organisms [1] | IC50 ([1]; Toxoplasma gondii) [µM] | solubility [2, 7] [µM] | solubility ([2]; pH 7.4) [µM] | Human liver microsomes [3] | half-life [4, 8] [h] | IC50 [5, 9] [µM] | IC50 [5, 10] [µM] | IC50 [5, 11] [µM] | IC50 [5, 12] [µM] | IC50 (HepG2 cells; [13]) [µM] | other results
1 | Cc1[nH]c2c(c(=O)c1-c1ccc(Oc3ccc(OC(F)(F)F)cc3)cc1)CCCC2 [JAG21, 2-Methyl-3-(4-(4-(Trifluoromethoxy)Phenoxy)Phenyl)-5,6,7,8-Tetrahydroquinolin-4-One] | statistically significant reduction | 2 | 7 (≈ 2.91 µg/mL) | 7.07 (≈ 2.94 µg/mL) | ∞ | 1.68 | 0.0404 | 0.0143 | 0.0616 | 0.0552 | 17.7 | EGS bradyzoites in treated cultures ([1]; 500 nM): we do not see EGS bradyzoites; IC90 ([1]; Toxoplasma gondii, supplement summary): < 1 µM; solubility ([2]; PBS, pH 7.4, solubility of the microcrystalline form, microcrystalline form): 3.5 µM (≈ 1.45 µg/mL); remaining in human liver microsomes ([3]; after 45 min): > 99%; half-life ([4]; half-life in mouse liver microsomes): 1.68 h; Mouse liver microsomes ([4]; stability, Figure 2E): 101.09 min; IC50 ([5]; D6, TM91-C235, W2 and C2B, range over strains, read-out: IC50 values against drug sensitive and resistant strains): 0.014 to 0.061 µM; IC90 ([5]; supplement summary, read-out: IC90, drug resistant Plasmodium falciparum in vitro): < 0.05 µM; IC50 (HepG2 cells; supplement summary, read-out: IC50, human HepG2 cells): > 17 µM; luciferase expressing parasites by IVIS ([6]; 5 mg/kg/day IP): eliminates leuciferase expressing parasites; survival of infected mice ([6]; 5 mg/kg/day IP for 14 days): 100%; cysts in brains ([6]; treated first 14 days with 5 mg/kg/day IP, 5 mg/kg/day): No cysts were found
2 | Cc1[nH]c2c(c(=O)c1-c1ccc(Oc3ccc(Cl)cc3)cc1)CCCC2 [JAG50] | statistically significant reduction | 2 | 16 (≈ 5.85 µg/mL) | 16.4 (≈ 6 µg/mL) | 99.04 min | 1.14 | 0.0364 | 0.0466 | 0.0691 | 0.0314 | 7.1 | half-life ([3]; human, liver microsomes): 1.65 h; Mouse liver microsomes [4]: 68.55 min
